Test results taken from patent US20110039721A1, “METHOD FOR PREDICTION ABOUT CARCINOGENICITY OF SUBSTANCE IN RODENT” (Chemicals Evaluation and Research Institute, priority 2007, published 2011).

Columns and labels:
liver = conditions: classification of the substance (Cr+/Cr−); cited from earlier work
rodent = conditions: classification of the substance (C+/C−); cited from earlier work
[1] = system: mRNA expressed from the genes (A) to (D) in rat liver; assay: Behavior of genes (mRNA expression level, oligo-DNA microarray) in rat liver after 28-day oral administration; type: in vivo; conditions: mRNA vs vehicle control group; for Behavior of gene caused by administration of chemical substance, Gene No. 4846 / Behavior of gene caused by administration of chemical substance, Gene No. 2026 / Behavior of gene caused by administration of chemical substance, Gene No. 4218 / Behavior of gene caused by administration of chemical substance, Gene No. 6182 / Behavior of gene caused by administration of chemical substance, Gene No. 5600: gene group (A); for Behavior of gene caused by administration of chemical substance, Gene No. 4846: Unigene No. Rn.144554; for Behavior of gene caused by administration of chemical substance, Gene No. 2026 / Behavior of gene caused by administration of chemical substance, Gene No. 4218: Unigene No. Rn.167075; for Behavior of gene caused by administration of chemical substance, Gene No. 6182: Unigene No. Rn.5834; for Behavior of gene caused by administration of chemical substance, Gene No. 5600: Unigene No. Rn.9836; for Behavior of gene caused by administration of chemical substance, Gene No. 1494 / Behavior of gene caused by administration of chemical substance, Gene No. 2045 / Behavior of gene caused by administration of chemical substance, Gene No. 2203: gene group (B); for Behavior of gene caused by administration of chemical substance, Gene No. 1494: Unigene No. Rn.1430; for Behavior of gene caused by administration of chemical substance, Gene No. 2045: Unigene No. Rn.19329; for Behavior of gene caused by administration of chemical substance, Gene No. 2203: Unigene No. Rn.21240; for Behavior of gene caused by administration of chemical substance, Gene No. 533 / Behavior of gene caused by administration of chemical substance, Gene No. 725 / Behavior of gene caused by administration of chemical substance, Gene No. 1163 / Behavior of gene caused by administration of chemical substance, Gene No. 4973 / Behavior of gene caused by administration of chemical substance, Gene No. 4095 / Behavior of gene caused by administration of chemical substance, Gene No. 1334 / Behavior of gene caused by administration of chemical substance, Gene No. 6620 / Behavior of gene caused by administration of chemical substance, Gene No. 6303 / Behavior of gene caused by administration of chemical substance, Gene No. 5878 / Behavior of gene caused by administration of chemical substance, Gene No. 1131 / Behavior of gene caused by administration of chemical substance, Gene No. 1562 / Behavior of gene caused by administration of chemical substance, Gene No. 1741 / Behavior of gene caused by administration of chemical substance, Gene No. 893 / Behavior of gene caused by administration of chemical substance, Gene No. 6026 / Behavior of gene caused by administration of chemical substance, Gene No. 154 / Behavior of gene caused by administration of chemical substance, Gene No. 1993 / Behavior of gene caused by administration of chemical substance, Gene No. 813 / Behavior of gene caused by administration of chemical substance, Gene No. 2494 / Behavior of gene caused by administration of chemical substance, Gene No. 2546 / Behavior of gene caused by administration of chemical substance, Gene No. 3776 / Behavior of gene caused by administration of chemical substance, Gene No. 3929 / Behavior of gene caused by administration of chemical substance, Gene No. 1119 / Behavior of gene caused by administration of chemical substance, Gene No. 6742 / Behavior of gene caused by administration of chemical substance, Gene No. 5634: gene group (C); for Behavior of gene caused by administration of chemical substance, Gene No. 533: Unigene No. Rn.106184; for Behavior of gene caused by administration of chemical substance, Gene No. 725: Unigene No. Rn.108075; for Behavior of gene caused by administration of chemical substance, Gene No. 1163: Unigene No. Rn.11766; for Behavior of gene caused by administration of chemical substance, Gene No. 4973: Unigene No. Rn.118529; for Behavior of gene caused by administration of chemical substance, Gene No. 4095: Unigene No. Rn.119024; for Behavior of gene caused by administration of chemical substance, Gene No. 1334 / Behavior of gene caused by administration of chemical substance, Gene No. 6620: Unigene No. Rn.120914; for Behavior of gene caused by administration of chemical substance, Gene No. 6303: Unigene No. Rn.123063; for Behavior of gene caused by administration of chemical substance, Gene No. 5878: Unigene No. Rn.143213; for Behavior of gene caused by administration of chemical substance, Gene No. 1131: Unigene No. Rn.144946; for Behavior of gene caused by administration of chemical substance, Gene No. 1562: Unigene No. Rn.14744; for Behavior of gene caused by administration of chemical substance, Gene No. 1741: Unigene No. Rn.1647; for Behavior of gene caused by administration of chemical substance, Gene No. 893: Unigene No. Rn.164817; for Behavior of gene caused by administration of chemical substance, Gene No. 6026: Unigene No. Rn.167685; for Behavior of gene caused by administration of chemical substance, Gene No. 154: Unigene No. Rn.185941; for Behavior of gene caused by administration of chemical substance, Gene No. 1993: Unigene No. Rn.18728; for Behavior of gene caused by administration of chemical substance, Gene No. 813: Unigene No. Rn.201760; for Behavior of gene caused by administration of chemical substance, Gene No. 2494: Unigene No. Rn.23969; for Behavior of gene caused by administration of chemical substance, Gene No. 2546: Unigene No. Rn.24561; for Behavior of gene caused by administration of chemical substance, Gene No. 3776: Unigene No. Rn.43232; for Behavior of gene caused by administration of chemical substance, Gene No. 3929: Unigene No. Rn.4620; for Behavior of gene caused by administration of chemical substance, Gene No. 1119: Unigene No. Rn.9757; for Behavior of gene caused by administration of chemical substance, Gene No. 6742: Unigene No. Rn.9779; for Behavior of gene caused by administration of chemical substance, Gene No. 5634: Unigene No. Rn.9862; for Behavior of gene caused by administration of chemical substance, Gene No. 5726: gene group (D), Unigene No. Rn.9939
Procedure, shortened: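 Rat liver RNA after 28 days of daily gavage dosing (male F344, 5 weeks old, four per group). A change reaching 1.5-fold, or 1/1.5, against solvent control scores as significant; opposite direction versus another carcinogen scores as not significant.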

[2] = classification of the substance (M+/M−); cited from earlier work

Row | Compound | Liver carcinogenicity (liver) | Carcinogenicity (rodent) | Behavior of gene caused by administration of chemical substance, Gene No. 4846 [1] | Behavior of gene caused by administration of chemical substance, Gene No. 2026 [1] | Behavior of gene caused by administration of chemical substance, Gene No. 4218 [1] | Behavior of gene caused by administration of chemical substance, Gene No. 6182 [1] | Behavior of gene caused by administration of chemical substance, Gene No. 5600 [1] | Behavior of gene caused by administration of chemical substance, Gene No. 1494 [1] | Behavior of gene caused by administration of chemical substance, Gene No. 2045 [1] | Behavior of gene caused by administration of chemical substance, Gene No. 2203 [1] | Behavior of gene caused by administration of chemical substance, Gene No. 533 [1] | Behavior of gene caused by administration of chemical substance, Gene No. 725 [1] | Behavior of gene caused by administration of chemical substance, Gene No. 1163 [1] | Behavior of gene caused by administration of chemical substance, Gene No. 4973 [1] | Behavior of gene caused by administration of chemical substance, Gene No. 4095 [1] | Behavior of gene caused by administration of chemical substance, Gene No. 1334 [1] | Behavior of gene caused by administration of chemical substance, Gene No. 6620 [1] | Behavior of gene caused by administration of chemical substance, Gene No. 6303 [1] | Behavior of gene caused by administration of chemical substance, Gene No. 5878 [1] | Behavior of gene caused by administration of chemical substance, Gene No. 1131 [1] | also measured
1 | CC/C(=C(/CC)c1ccc(O)cc1)c1ccc(O)cc1 [TS068, Diethylstilbestrol] | Cr− | C+ | + | − | + | + | + | − | − | − | + | + | + | + | + | + | + | + | + | + | Behavior of gene caused by administration of chemical substance, Gene No. 1562 [1]: +; Behavior of gene caused by administration of chemical substance, Gene No. 1741 [1]: +; Behavior of gene caused by administration of chemical substance, Gene No. 893 [1]: +; Behavior of gene caused by administration of chemical substance, Gene No. 6026 [1]: +; Behavior of gene caused by administration of chemical substance, Gene No. 154 [1]: +; Behavior of gene caused by administration of chemical substance, Gene No. 1993 [1]: +; Behavior of gene caused by administration of chemical substance, Gene No. 813 [1]: +; Behavior of gene caused by administration of chemical substance, Gene No. 2494 [1]: +; Behavior of gene caused by administration of chemical substance, Gene No. 2546 [1]: +; Behavior of gene caused by administration of chemical substance, Gene No. 3776 [1]: +; Behavior of gene caused by administration of chemical substance, Gene No. 3929 [1]: +; Behavior of gene caused by administration of chemical substance, Gene No. 1119 [1]: +; Behavior of gene caused by administration of chemical substance, Gene No. 6742 [1]: +; Behavior of gene caused by administration of chemical substance, Gene No. 5634 [1]: +; Behavior of gene caused by administration of chemical substance, Gene No. 5726 [1]: −; Mutagenicity by Ames test [2]: M−
2 | ClC(Cl)=C(Cl)Cl [TS066, Tetrachloroethylene] | Cr− | C+ | − | − | − | + | − | − | + | − | + | − | − | − | − | − | − | − | − | − | Behavior of gene caused by administration of chemical substance, Gene No. 1562 [1]: −; Behavior of gene caused by administration of chemical substance, Gene No. 1741 [1]: −; Behavior of gene caused by administration of chemical substance, Gene No. 893 [1]: −; Behavior of gene caused by administration of chemical substance, Gene No. 6026 [1]: −; Behavior of gene caused by administration of chemical substance, Gene No. 154 [1]: −; Behavior of gene caused by administration of chemical substance, Gene No. 1993 [1]: −; Behavior of gene caused by administration of chemical substance, Gene No. 813 [1]: −; Behavior of gene caused by administration of chemical substance, Gene No. 2494 [1]: −; Behavior of gene caused by administration of chemical substance, Gene No. 2546 [1]: −; Behavior of gene caused by administration of chemical substance, Gene No. 3776 [1]: −; Behavior of gene caused by administration of chemical substance, Gene No. 3929 [1]: −; Behavior of gene caused by administration of chemical substance, Gene No. 1119 [1]: −; Behavior of gene caused by administration of chemical substance, Gene No. 6742 [1]: −; Behavior of gene caused by administration of chemical substance, Gene No. 5634 [1]: −; Behavior of gene caused by administration of chemical substance, Gene No. 5726 [1]: −; Mutagenicity by Ames test [2]: M−
